In US7241812B2, “Methods and compositions for modulating sphingosine-1-phosphate (S1P) receptor activity” (Praecis Pharmaceuticals, Inc., priority 2004, dated 2007):

Key:
[1] = target: T1, S1P1 receptor (Homo sapiens, UniProt P21453); assay: Binding to S1P1 receptor, [33P]sphingosine 1-phosphate displacement on membranes of transfected HEK 293 T cells; details: 2.5 pM [33P]sphingosine 1-phosphate, 60 minutes at room temperature
T1 construct: expressed in transfected cells; host or cells: HEK 293 T cells (crude membrane preparation)
Experimental: (§1) The ability of several of the compounds described herein to bind to the S1P1 or S1P3 receptor was also tested as follows.
(§2) For the membrane preparation, plasmid DNA was transfected into HEK 293 T cells using the FuGENE 6 transfection protocol (publicly available by Roche). Briefly, subconfluent monolayers of HEK 293 T cells were transfected with the DNA mixture containing FuGENE 6 (using a 1:3 ratio). The dishes containing the cells were then placed in a tissue culture incubator (5% CO2, 37° C.). The cells were harvested 48 hours after addition of the DNA by scraping in HME buffer (in mM: 20 HEPES, 5 MgCl2, 1 EDTA, pH 7.4, 1 mM PMSF) containing 10% sucrose on ice, and disrupted using a Dounce homogenizer. After centrifugation at 800×g, the supernatant was diluted with HME without sucrose and centrifuged at 17,000×g for 1 hour. This crude membrane pellet was resuspended in HME with sucrose, aliquoted, and snap-frozen by immersion in liquid nitrogen. The membranes were stored at −70 C. Protein concentration was determined spectroscopically by Bradford protein assay.
(§3) For the binding assay, [^33P]sphingosine 1-phosphate (obtained from American Radiolabeled Chemicals, Inc) was added to membranes in 200 μl in 96-well plates with assay concentrations of 2.5 pM [^33P]sphingosine 1-phosphate, 4 mg/ml BSA, 50 mM HEPES, pH 7.5, 100 mM NaCl, 5 mM MgCl2, and 5 μg of protein. Binding was performed for 60 minutes at room temperature with gentle mixing and terminated by collecting the membranes onto GF/B filter plates. After drying the filter plates for 10 minutes, 50 μl of Microscint 40 was added to each well, and filter-bound radionuclide was measured on a Packard Top Count. Nonspecific binding was defined as the amount of radioactivity remaining in the presence of excess of unlabeled S1P.

[2] = target: T2, S1P3 receptor (Homo sapiens, UniProt Q99500); assay: Binding to S1P3 receptor, [33P]sphingosine 1-phosphate displacement on membranes of transfected HEK 293 T cells; details: 2.5 pM [33P]sphingosine 1-phosphate, 60 minutes at room temperature
T2 construct: expressed in transfected cells; host or cells: HEK 293 T cells (crude membrane preparation)
Experimental: as §1, §2, §3

T1 sequence (P21453 whole entry): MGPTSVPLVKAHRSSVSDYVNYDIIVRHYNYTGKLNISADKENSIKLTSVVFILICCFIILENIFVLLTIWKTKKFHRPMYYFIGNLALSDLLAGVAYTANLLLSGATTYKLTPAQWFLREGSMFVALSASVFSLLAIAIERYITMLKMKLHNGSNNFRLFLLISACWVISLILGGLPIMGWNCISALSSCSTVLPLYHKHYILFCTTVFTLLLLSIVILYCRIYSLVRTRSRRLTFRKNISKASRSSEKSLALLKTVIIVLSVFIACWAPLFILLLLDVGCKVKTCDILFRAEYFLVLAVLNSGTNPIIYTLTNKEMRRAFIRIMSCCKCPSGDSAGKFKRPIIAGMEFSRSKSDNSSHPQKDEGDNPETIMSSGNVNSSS
T2 sequence (Q99500 whole entry): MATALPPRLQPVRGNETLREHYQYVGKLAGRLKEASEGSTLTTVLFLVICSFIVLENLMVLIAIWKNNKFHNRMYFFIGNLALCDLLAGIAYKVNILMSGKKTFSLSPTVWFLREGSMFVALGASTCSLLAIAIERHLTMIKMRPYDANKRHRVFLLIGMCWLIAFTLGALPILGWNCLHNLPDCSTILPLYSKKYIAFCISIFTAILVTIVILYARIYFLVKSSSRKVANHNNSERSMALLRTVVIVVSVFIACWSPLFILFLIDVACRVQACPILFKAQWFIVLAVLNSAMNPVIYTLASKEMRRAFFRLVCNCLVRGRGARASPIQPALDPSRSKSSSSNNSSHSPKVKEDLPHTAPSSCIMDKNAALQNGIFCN

SMILES	IC50 [1]	IC50 [2]
COc1ccc(CCOc2ccc(NC(=O)[C@@](C)(N)CO)cc2)cc1OC [compound 34]	1000 nM	> 10000 nM
CCCCCCCCc1ccc(CCC2(N)COP(=O)(O)OC2)cc1 (centres unmarked) [compound 45]	2.4 nM	343 nM
CCc1ccc(-c2ccc(CCOc3ccc(NC(=O)[C@@](C)(N)CO)cc3)cc2)cc1 [compound 46]	250 nM	5000 nM
CCOc1ccc(-c2ccc(CCOc3ccc(NC(=O)[C@@](C)(N)CO)cc3)cc2)cc1 [compound 47]	23 nM	5000 nM
C[C@](N)(CO)C(=O)Nc1ccc(OCCc2ccc(-c3ccc(Cl)cc3)cc2)cc1 [compound 49]	240 nM	8000 nM
COc1cccc(Oc2ccc(NC(=O)[C@@](C)(N)CO)cc2)c1 [compound 59]	3.5 nM	50 nM
C[C@](N)(COP(=O)(O)O)C(=O)Nc1ccc(-c2cnn(Cc3ccccc3)c2)cc1 [compound 105]	2000 nM	> 10000 nM
COc1ccc(CCCCOc2ccc(NC(=O)[C@@](C)(N)COP(=O)(O)O)cc2)cc1 [compound 110]	23 nM	2150 nM
Cc1cc(NC(=O)[C@@](C)(N)CO)ccc1Oc1ccccc1 [compound 124]	15 nM	164 nM
CCCCCCNC(=O)c1ccc(NC(=O)[C@@H](N)[C@@H](C)O)cc1 [compound 125]	2000 nM	–
CCCCCCCN(C)C(=O)c1ccc(NC(=O)[C@@H](N)[C@@H](C)O)cc1 [compound 126]	> 10000 nM	> 10000 nM
CCCCCCCc1ccc(C(=O)N[C@@H](C)CO)cc1 [compound 127]	56 nM	59 nM
CCCCCNC(=O)c1ccc(NC(=O)[C@@H](N)[C@@H](C)O)cc1 [compound 128]	0.84 nM	160 nM
C[C@](N)(CO)C(=O)Nc1ccc(Oc2ccccc2)cc1 [compound 129]	17.9 nM	6330 nM
C[C@](N)(COc1ccccc1)C(=O)Nc1ccc(Oc2ccccc2)cc1 [compound 130]	90 nM	> 10000 nM
CCc1ccc(OC[C@](C)(N)C(=O)Nc2ccc(Oc3ccc(CC)cc3)cc2)cc1 [compound 131]	218 nM	833 nM
CCCCc1ccc(OC[C@](C)(N)C(=O)Nc2ccc(Oc3ccc(CCCC)cc3)cc2)cc1 [compound 132]	167 nM	3500 nM
CCCCc1ccc(Oc2ccc(NC(=O)[C@@](C)(N)CO)cc2)cc1 [compound 133]	650 nM	> 10000 nM
CCc1ccc(Oc2ccc(NC(=O)[C@@](C)(N)CO)cc2)cc1 [compound 134]	114 nM	1200 nM

SMILES	IC50 [1]	IC50 [2]
CCCCOc1ccc(Oc2ccc(NC(=O)[C@@](C)(N)CO)cc2)cc1 [compound 135]	22.1 nM	2500 nM
CCCCCCCCc1ccc(OC2CN[C@H](CO)C2)cc1 (some centres unmarked) [compound 137]	4000 nM	> 10000 nM
C[C@](N)(CO)C(=O)Nc1ccc(Oc2ccc(Cl)cc2)cc1 [compound 138]	3800 nM	> 10000 nM
C[C@](N)(CO)C(=O)Nc1ccc(Oc2ccc(F)cc2)cc1 [compound 139]	2.5 nM	220 nM
CC(N)(CO)C(=O)Nc1ccc(OCCCCc2ccc(C(F)(F)F)cc2)cc1 (centres unmarked) [compound 141]	12 nM	1040 nM
COc1cccc(-c2ccc(NC(=O)[C@@](C)(N)CO)cc2)c1 [compound 142]	8 nM	315 nM
CCCOc1cccc(-c2ccc(NC(=O)[C@@](C)(N)CO)cc2)c1 [compound 144]	2400 nM	> 10000 nM
CC(C)Oc1cccc(-c2ccc(NC(=O)[C@@](C)(N)CO)cc2)c1 [compound 145]	3.4 nM	2000 nM
C[C@](N)(CO)C(=O)Nc1ccc(-c2cccc(OCc3ccccc3)c2)cc1 [compound 147]	166 nM	130 nM
C[C@](N)(CO)c1ncc(-c2ccc(OCCc3ccc(-c4ccccc4)cc3)cc2)[nH]1 [compound 148]	> 10000 nM	> 10000 nM
CC(C)c1ccc(-c2ccc(CCOc3ccc(NC(=O)[C@@](C)(N)CO)cc3)cc2)cc1 [compound 150]	0.55 nM	5030 nM
Cc1ccccc1-c1ccc(CCOc2ccc(NC(=O)[C@@](C)(N)CO)cc2)cc1 [compound 152]	> 10000 nM	> 10000 nM
C[C@](N)(CO)C(=O)Nc1ccc(OCc2ccc(-c3ccccc3)cc2)cc1 [compound 153]	0.8 nM	285 nM
C[C@](N)(CO)C(=O)Nc1ccc(-c2csc(-c3ccc(-c4ccccc4)cc3)n2)cc1 [compound 154]	21 nM	> 10000 nM
C[C@](N)(CO)C(=O)Nc1ccc(OCCc2cccc(-c3ccccc3)c2)cc1 [compound 155]	> 10000 nM	> 10000 nM
C[C@](N)(CO)C(=O)Nc1ccc(OCCc2ccc(-c3ccncc3)cc2)cc1 [compound 156]	6 nM	3250 nM
C[C@](N)(CO)C(=O)Nc1ccc(OCCc2ccc(-c3ccoc3)cc2)cc1 [compound 157]	1.3 nM	–
C[C@](N)(CO)C(=O)Nc1ccc(OCCc2ccc(-c3cccs3)cc2)cc1 [compound 158]	150 nM	> 1000 nM
CC(COc1ccc(NC(=O)[C@@](C)(N)CO)cc1)c1ccc(-c2ccccc2)c(F)c1 (some centres unmarked) [compound 160]	500 nM	> 1000 nM
